The values below are quoted from earlier work in patent US8354121B2, “Tape preparation” (Dainippon Sumitomo Pharma Co., Ltd., priority 2006, dated 2013).

For one series, the target named is dopamine D2 receptor (Homo sapiens, UniProt P14416). As to conditions: compared with haloperidol.
The next series relates to serotonin 5-HT2 receptor. The following applies: compared with haloperidol.

Chain of dopamine D2 receptor (P14416 whole entry, species assumed): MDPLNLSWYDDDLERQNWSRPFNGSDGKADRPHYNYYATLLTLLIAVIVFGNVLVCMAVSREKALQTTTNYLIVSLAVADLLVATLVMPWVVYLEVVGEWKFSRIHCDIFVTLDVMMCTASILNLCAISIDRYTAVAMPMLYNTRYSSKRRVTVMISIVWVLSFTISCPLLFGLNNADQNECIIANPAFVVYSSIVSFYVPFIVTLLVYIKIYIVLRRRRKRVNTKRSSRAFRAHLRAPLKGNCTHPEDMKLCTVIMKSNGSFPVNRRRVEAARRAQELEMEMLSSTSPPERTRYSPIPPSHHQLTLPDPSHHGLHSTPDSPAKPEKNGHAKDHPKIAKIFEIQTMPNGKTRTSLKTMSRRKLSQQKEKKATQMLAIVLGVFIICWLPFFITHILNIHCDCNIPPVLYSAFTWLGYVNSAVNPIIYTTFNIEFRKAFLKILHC

On to `CCN1CCN(c2cc(-c3ccc(F)cc3)c3c(n2)CCCCCC3)CC1` [Compound A, 2-(4-ethyl-1-piperazinyl)-4-(4-fluorophenyl)-5,6,7,8,9,10-hexahydrocycloocta[b]pyridine], for which the “affinity for dopamine D2 receptor” value at dopamine D2 receptor was “higher affinity”. For the same molecule, the “affinity for serotonin 5-HT2 receptor” value in the series with serotonin 5-HT2 receptor is listed as “higher affinity”.
